{"source": "patent US10752584B2", "about": "(EMORY UNIVERSITY, priority 2016, dated 2020)", "assay_type_in_all_cases": "cell-based", "key": {"wild type HBV": {"tested_on": "wild type HBV", "experiment": "Anti-HBV assay in AD-38 cell line", "settings": "Hepatitis B virus, AD-38 cells, HBV in culture supernatant"}, "[1]": {"tested_on": "nuclear DNA in HepG2 cells", "experiment": "Mitochondrial toxicity assay in HepG2 cells: nuclear DNA", "settings": "Homo sapiens", "text": "A real-time PCR assay to accurately quantify mitochondrial DNA content has been developed (see Stuyver L J, Lostia S, Adams M, Mathew J S, Pai B S, Grier J, Tharnish P M, Choi Y, Chong Y, Choo H, Chu C K, Otto M J, Schinazi R F. Antiviral activities and cellular toxicities of modified 2′,3′-dideoxy-2′,3′-didehydrocytidine analogs. Antimicrob. Agents Chemother. 2002; 46: 3854-60). This assay was used in all studies described in this application that determine the effect of compounds on mitochondrial DNA content. In this assay, low-passage-number HepG2 cells were seeded at 5,000 cells/well in collagen-coated 96-well plates. Test compounds were added to the medium to obtain final concentrations of 0 μM, 0.1 μM, 10 μM and 100 μM. On culture day 7, cellular nucleic acids were prepared by using commercially available columns (RNeasy 96 kit; Qiagen). […] The mitochondrial cytochrome c oxidase subunit II (COXII) gene and the β-actin or rRNA gene were amplified from 5 μl of the eluted nucleic acids using a multiplex Q-PCR protocol with suitable primers and probes for both target and reference amplifications. For COXII the following sense, probe and antisense primers were used, respectively: 5′-TGCCCGCCATCATCCTA-3′, 5′-tetrachloro-6-carboxyfluorescein-[…]-TAMRA-3′ and 5′-[…]-3′. For exon 3 of the β-actin gene (GenBank accession number E01094) the sense, probe, and antisense primers are 5′-GCGCGGCTACAGCTTCA-3′, 5′-6-[…]-3′ and 5′-[…]-3′, respectively. The primers and probes for the rRNA gene are commercially available from Applied Biosystems. Since equal amplification efficiencies are obtained for all genes, the comparative CT method was used to investigate potential inhibition of mitochondrial DNA synthesis. The comparative CT method uses arithmetic formulas in which the amount of target (COXII gene) is normalized to the amount of an endogenous reference (the β-actin or rRNA gene) and is relative to a calibrator (a control with no drug at day 7). The arithmetic formula for this approach is given by 2−ΔΔCT, where ΔΔCT is (CT for average target test sample CT for target control)−(CT for average reference test−CT for reference control) (see Johnson M R, K Wang, J B Smith, M J Heslin, R B Diasio. Quantitation of dihydropyrimidine dehydrogenase expression by real-time reverse transcription polymerase chain reaction. Anal. Biochem. 2000; 278:175-184). A decrease in mitochondrial DNA content in cells grown in the presence of drug indicated mitochondrial toxicity.\nThe effect of compounds 7 and 9 on the levels of mitochondrial and nuclear DNA, and lactic acid production was evaluated in HepG2 cells (14-day assay), and the data is tabulated below in Table 2: […]"}, "[2]": {"experiment": "Cellular toxicity assay in human PBM cells", "settings": "human, human PBM cells, read-out: Cytotoxicity", "in_short": "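IC50 for cytotoxicity is derived with the median effective method from concentration-response data. Controls: cycloheximide, solvent-treated untreated cells.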"}}}
{"smiles": "C#CCNC(=O)C(=O)c1c(C)c(C(=O)Nc2ccc(F)c(F)c2)n(C)c1C", "note": "[Compound 7a, 4-[(Propargylamino)(oxo)acetyl]-N-(3,4-difluorophenyl)-1,3,5-trimethyl-1H-pyrrole-2-carboxamide]", "values": [{"measurement": "EC50", "setting": "wild type HBV; read-out: Anti-HBV activity EC50", "result": "1 to 9", "unit": "nM"}, {"measurement": "EC90", "setting": "wild type HBV; read-out: Anti-HBV activity EC90", "result": "10 to 90", "unit": "nM"}, {"measurement": "IC50", "setting": "[1]; 336 h, HepG2 cells, 14-day assay", "result": "> 50000", "unit": "nM"}, {"measurement": "inhibition at 10 µM", "setting": "[1]; 336 h, HepG2 cells, 14-day assay, 10 μM, read-out: % inhibition nDNA", "result": 5.4, "unit": "%"}, {"measurement": "inhibition at 25 µM", "setting": "[1]; 336 h, HepG2 cells, 14-day assay, 25 μM, read-out: % inhibition nDNA", "result": "< 1", "unit": "%"}, {"measurement": "inhibition at 50 µM", "setting": "[1]; HepG2, 336 h, read-out: % inhibition nDNA", "result": 13.1, "unit": "%"}, {"measurement": "CC50", "setting": "[2]", "result": "> 100000", "unit": "nM"}]}
